Source: the supplement of paper PMC10307832

compound: O=C(Nc1cc(C(F)(F)F)cc(C(F)(F)F)c1)c1cc(Cl)ccc1O [IMD-0354] + COc1cccc2cc(-c3nc([C@H]4CC[C@H](C(=O)O)CC4)n4ncnc(N)c34)[nH]c12 [OSI-027] (partner 0.5 µM); assay: relative viability (nuclei count vs DMSO), 5 days (fraction); higher = more cells survive; settings: first compound 0.04 µM
Summary of the method: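 Lung cancer cell lines were pin-tool dosed in 1536-well plates on the day after seeding, with either a lone drug or a fixed anchor-drug dose plus five library-drug doses (not always all listed) in √10 steps. Nuclei were counted on 4× images after 5 days. Relative viability is the ratio of treated-well to vehicle-well nuclei counts, with each value a median of duplicate plates.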

Going from NCI-H522 to NCI-H1623, the relative viability falls from 0.723 to 0.464.

First: NCI-H727
Second: NCI-H1650
The relative viability of the first is higher: 0.93 for the first, 0.704 for the second.

Going from NCI-H1993 to SK-LU-1, the relative viability falls from 0.576 to 0.32.

Compared with NCI-H838, LCLC-103H is higher in relative viability: 0.422 for the first, 0.592 for the second.

Going from NCI-H520 to NCI-H2126, the relative viability rises from 0.297 to 0.752.

Going from EMC-BAC-2 to NCI-H2085, the relative viability rises from 0.403 to 0.773.

First: HCC-366
Second: NCI-H1666
The relative viability of the first is higher: 0.909 for the first, 0.86 for the second.

First: NCI-H596
Second: NCI-H1395
The relative viability of the first is higher: 0.881 for the first, 0.69 for the second.

First: NCI-H2087
Second: NCI-H2342
The relative viability of the first is lower: 0.496 for the first, 0.723 for the second.

Compared with LK-2, H3255 is higher in relative viability: 0.193 for the first, 0.549 for the second.

First: COR-L23
Second: COR-L 105
The relative viability of the first is lower: 0.767 for the first, 0.812 for the second.

First: LOU-NH91
Second: ChaGo-K-1
The relative viability of the first is higher: 0.77 for the first, 0.725 for the second.

Going from NCI-H358 to NCI-H2405, the relative viability rises from 0.676 to 0.696.

Going from HOP-62 to HCC-44, the relative viability falls from 0.954 to 0.556.

Compared with SW 900, NCI-H441 is lower in relative viability: 0.64 for the first, 0.593 for the second.

Going from NCI-H1793 to NCI-H2170, the relative viability rises from 0.319 to 0.764.

same assay, conditions: first compound 0.1265 µM

Compared with NCI-H522, NCI-H1623 is lower in relative viability: 0.683 for the first, 0.395 for the second.

Compared with NCI-H727, NCI-H1650 is lower in relative viability: 0.585 for the first, 0.491 for the second.

Going from NCI-H1993 to SK-LU-1, the relative viability falls from 0.504 to 0.305.

First: NCI-H838
Second: LCLC-103H
The relative viability of the first is lower: 0.334 for the first, 0.471 for the second.

Going from NCI-H520 to NCI-H2126, the relative viability rises from 0.27 to 0.609.

Going from EMC-BAC-2 to NCI-H2085, the relative viability rises from 0.386 to 0.78.

Compared with HCC-366, NCI-H1666 is lower in relative viability: 0.929 for the first, 0.841 for the second.

Compared with NCI-H596, NCI-H1395 is lower in relative viability: 0.812 for the first, 0.755 for the second.

Going from NCI-H2087 to NCI-H2342, the relative viability rises from 0.646 to 0.659.

Going from LK-2 to H3255, the relative viability rises from 0.198 to 0.59.

Going from COR-L23 to COR-L 105, the relative viability rises from 0.679 to 0.697.

Compared with LOU-NH91, ChaGo-K-1 is lower in relative viability: 0.692 for the first, 0.514 for the second.

Compared with NCI-H358, NCI-H2405 is lower in relative viability: 0.826 for the first, 0.601 for the second.

First: HOP-62
Second: HCC-44
The relative viability of the first is higher: 0.782 for the first, 0.562 for the second.

Going from SW 900 to NCI-H1648, the relative viability falls from 0.674 to 0.27.

Compared with NCI-H441, NCI-H1793 is lower in relative viability: 0.604 for the first, 0.293 for the second.

NCI-H2170 showed a relative viability of 0.673.

same assay, conditions: first compound 0.4 µM

Compared with NCI-H522, NCI-H1623 is lower in relative viability: 0.688 for the first, 0.458 for the second.

Going from NCI-H727 to NCI-H1650, the relative viability falls from 0.415 to 0.362.

Going from NCI-H1993 to SK-LU-1, the relative viability falls from 0.562 to 0.277.

First: NCI-H838
Second: LCLC-103H
The relative viability of the first is lower: 0.294 for the first, 0.375 for the second.

First: NCI-H520
Second: NCI-H2126
The relative viability of the first is lower: 0.194 for the first, 0.594 for the second.

First: EMC-BAC-2
Second: NCI-H2085
The relative viability of the first is lower: 0.33 for the first, 0.522 for the second.

First: HCC-366
Second: NCI-H1666
The relative viability of the first is lower: 0.496 for the first, 0.641 for the second.

Compared with NCI-H596, NCI-H1395 is higher in relative viability: 0.429 for the first, 0.651 for the second.

Going from NCI-H2087 to NCI-H2342, the relative viability rises from 0.189 to 0.499.

Going from LK-2 to H3255, the relative viability rises from 0.235 to 0.585.

Going from COR-L23 to COR-L 105, the relative viability rises from 0.397 to 0.533.

Going from LOU-NH91 to ChaGo-K-1, the relative viability rises from 0.335 to 0.384.

Going from NCI-H358 to NCI-H2405, the relative viability rises from 0.403 to 0.552.

Compared with HOP-62, HCC-44 is lower in relative viability: 0.516 for the first, 0.334 for the second.

Compared with SW 900, NCI-H1648 is lower in relative viability: 0.308 for the first, 0.287 for the second.

First: NCI-H441
Second: NCI-H1793
The relative viability of the first is higher: 0.329 for the first, 0.161 for the second.

Cell Line NCI-H2170 has a relative viability of 0.475.

same assay, conditions: first compound 1.265 µM

First: NCI-H522
Second: NCI-H1623
The relative viability of the first is lower: 0.385 for the first, 0.409 for the second.

First: NCI-H727
Second: NCI-H1650
The relative viability of the first is higher: 0.395 for the first, 0.189 for the second.

Going from NCI-H1993 to SK-LU-1, the relative viability falls from 0.522 to 0.181.

Going from NCI-H838 to LCLC-103H, the relative viability rises from 0.209 to 0.295.

Compared with NCI-H520, NCI-H2126 is higher in relative viability: 0.283 for the first, 0.588 for the second.

First: EMC-BAC-2
Second: NCI-H2085
The relative viability of the first is lower: 0.336 for the first, 0.362 for the second.

Going from HCC-366 to NCI-H1666, the relative viability rises from 0.209 to 0.415.

Compared with NCI-H596, NCI-H1395 is lower in relative viability: 0.793 for the first, 0.43 for the second.

First: NCI-H2087
Second: NCI-H2342
The relative viability of the first is lower: 0.119 for the first, 0.472 for the second.

Compared with LK-2, H3255 is higher in relative viability: 0.19 for the first, 0.488 for the second.

Going from COR-L23 to COR-L 105, the relative viability rises from 0.145 to 0.363.

First: LOU-NH91
Second: ChaGo-K-1
The relative viability of the first is higher: 0.27 for the first, 0.269 for the second.

Going from NCI-H358 to NCI-H2405, the relative viability rises from 0.124 to 0.312.

First: HOP-62
Second: HCC-44
The relative viability of the first is higher: 0.295 for the first, 0.285 for the second.

First: SW 900
Second: NCI-H1648
The relative viability of the first is higher: 0.263 for the first, 0.244 for the second.

Going from NCI-H441 to NCI-H1793, the relative viability falls from 0.169 to 0.165.

In the case of NCI-H2170, the relative viability is reported as 0.547.

same assay, conditions: first compound 4 µM

Going from NCI-H522 to NCI-H1623, the relative viability rises from 0.343 to 0.37.

Compared with NCI-H727, NCI-H1650 is lower in relative viability: 0.312 for the first, 0.259 for the second.

Going from NCI-H1993 to SK-LU-1, the relative viability falls from 0.482 to 0.193.

Going from NCI-H838 to LCLC-103H, the relative viability falls from 0.211 to 0.196.

First: NCI-H520
Second: NCI-H2126
The relative viability of the first is lower: 0.129 for the first, 0.524 for the second.

Going from EMC-BAC-2 to NCI-H2085, the relative viability falls from 0.3 to 0.212.

Compared with HCC-366, NCI-H1666 is higher in relative viability: 0.0404 for the first, 0.302 for the second.

Compared with NCI-H596, NCI-H1395 is higher in relative viability: 0.246 for the first, 0.256 for the second.

First: NCI-H2087
Second: NCI-H2342
The relative viability of the first is lower: 0.112 for the first, 0.482 for the second.

First: LK-2
Second: H3255
The relative viability of the first is lower: 0.215 for the first, 0.302 for the second.

Compared with COR-L23, COR-L 105 is higher in relative viability: 0.178 for the first, 0.23 for the second.

Going from LOU-NH91 to ChaGo-K-1, the relative viability rises from 0.198 to 0.232.

For NCI-H358, the relative viability was 0.141.
